The nature of data set [1]: Serum concentration of Compound 1 in male cynomolgus monkeys. As to conditions: given orally. Format: in vivo, cynomolgus monkey. The protocol: (§1) Five male cynomologus monkeys were employed in the study. Three of the five monkeys were treated with Compound 1 at a daily dosage of 1.25 mg/kg (orally) for a period of 25 days. Compound 1 is an RAR antagonist or inhibitor. The remaining two were similarly treated with a vehicle to serve as control. Serum samples were collected on days 1, 8, 15, 22 and 25 for triglyceride determination. Serum samples from days 8, 15, 22 and 25 were also assayed for the concentration of Compound 1.

Another data set concerns male cynomologus monkeys. Description: Clinical observation, body weight and food consumption of treated monkeys. As to conditions: daily 1.25 mg/kg orally for 25 days. Type of data set: in vivo, cynomolgus monkey. As to the method: as §1

Entries after “also recorded” stand apart in the source; their conditions may differ.

With `CCc1ccc(C2=CC(C)(C)Sc3ccc(C#Cc4ccc(C(=O)O)cc4)cc32)cc1` [Compound 1, 4-[[4-(4-ethylphenyl)-2,2-dimethyl-(2H)-thiochromen-6-yl]-ethynyl]-benzoic acid], the oral absorption result in data set [1] is “well absorbed”. In addition, in the data set on male cynomologus monkeys, the “body weight or rate of food consumption” value is “no change”. In addition, the “general health / clinical signs” value in the data set on male cynomologus monkeys (1.25 mg/kg) was “appeared healthy; also recorded: without any noticeable abnormal clinical signs”.

Values taken from US7105566B2, “Methods of treatment during vascular procedures” (Allergan, Inc., priority 2002, dated 2006).
